Patent US6369096B1, “Benzyloxy prodigiosine compounds” (Pharmacia & Upjohn S.p.A., priority 1998, dated 2002)
Read-outs that look alike come from different tables or passages of the source.

Columns and labels:
[1] = system: female C57 Bl/6 mice primed and challenged with sheep red blood cells (SRBC); test: DTH (Delayed-Type Hypersensitivity) assay; format: in vivo; conditions: given daily for six days, dose reducing footpad thickness increase by 30% vs controls
Experimental: The immunosuppressive activity of the compounds of the invention was evaluated in vivo by DTH (Delayed-Type Hypersensitivity) assay. According to the test, sheep red blood cells (SRBC) (1×10^5 cells) suspended in 500 mcL saline, were injected i.v. into the tail vein of female C57 Bl/6 mice (8-9 week old). Five days later 1×10^8 SRBC suspended in 50 mcL saline were injected into the left hind footpad. The increase in footpad thickness was measured with a dial micrometer 24 h after challenge. The test compounds were given daily for six days at different doses starting on the day of priming. Activity was expressed as ED30 (dose able to reduce by 30% the thickness increase compared to controls).

[2] = system: Th murine cells D10-G4.1 (ATCC TIB 224); test: Inhibition of IL-2 proliferation induced activity (3H-TdR uptake); format: cell-based; conditions: for 3HTdR uptake: mean cpm from triplicate wells, 48 h
Experimental: The Th murine cells D10-G4.1 (ATCC TIB 224) are IL-2 dependent for their growth. They are cultured in complete RPMI 1640 medium enriched with rhIL-2 (6 ng/ml) and ConA (6 ng/ml). For testing the inhibitory effects of the compounds of the invention on IL-2 activity, D 10 cells are washed twice with complete medium, resuspended at 10^5 cells/ml in the same medium and triplicately distributed (10^4 cells/well) in flat bottomed 96 well plates. […] and […] at different concentrations are simultaneously added to the cells. The cultures are then incubated at 37° C. in a humidified 5% CO2 incubator for 48 h, the last 18 h in the presence of 0.2 µCi of ^3H-TdR. Uptake of 3H-TdR in the cells (cpm) is taken as a measure of cell proliferation.

[3] = In vivo bioavailability evaluation (pharmacokinetics and oral bioavailability); conditions: 10 mg/kg, male Lewis rat, iv 1 mg salt/kg, oral 10 mg salt/kg, read-out: F % (bioavailability)
Experimental: Aim of the study is to determine the pharmacokinetics and the oral bioavailability of the instant prodigiosine compounds in rats.
Species/strain/sex: rat/Lewis/male
No. formulations: 1 oral; 1 intravenous
No. animals/formulation: 3+2 controls (+an ulterior rat treated with the iv formulation); total 9
Dosages: iv: 1 mg salt/kg; oral: 10 mg salt/kg
Vehicles: iv: a solution at the conc. of 5 mg/ml in PEG 400/Tween 80 (6:1 v:v) was prepared, then diluted with dextrose at the final concentration of 0.5 mg/ml; oral: a solution at the concentration of 5 mg/ml in Cremophor ELP/EtOH abs (6.5:3.5 v:v) was prepared, then diluted with saline at the final concentration of 1 mg/ml
Experimental: Three cannulated rats/formulation were treated. One rat/formulation was only treated with the vehicle, as basal sample. The intravenous administration was given into the caudal vein as bolus; the oral administration by gastric gavage as solution. […] Plasma was immediately obtained by centrifugation (10000 rpm for 3 min) and stored in labelled tubes at −30° C. till analysis.
Analytical assay: the extraction of the compounds was performed by protein precipitation by adding 100 mcl of acetonitrile to 25 mcl of plasma. The concentrations of the compounds (as free bases) in plasma were determined by LC-MS method. Column: APEX CN RP 5 mc, 10×4 mm (Jones chromatography); mobil phase: 70% acetonitrile/30% 1 mM ammonium formate +0.01% triethylamine adjusted to pH 2.0 with formic acid; flow rate: 1 ml/min; injection volume: 10 mcL; oven temperature: 45° C.; MS detection by APCI using MRM positive ion; MRM transition: 330 m/z>239 m/z, retention time: 1.4 min; LLOQ: 5.03 ng/ml; ULOQ: 10060 ng/ml. Bioavailability is expressed in following Table 1 as F %. ClogP is a lypophylic index, related to octanol/water partition coefficient.

SMILES | DTH ED30 iv [1] | DTH ED30 os [1] | % inhibition vs vehicle ([2]; 1 ng/ml) | 3HTdR uptake ([2]; 1 ng/ml) | % inhibition vs vehicle ([2]; 3 ng/ml) | 3HTdR uptake ([2]; 3 ng/ml) | % inhibition vs vehicle ([2]; 10 ng/ml) | 3HTdR uptake ([2]; 10 ng/ml) | % inhibition vs vehicle ([2]; 30 ng/ml) | 3HTdR uptake ([2]; 30 ng/ml) | bioavailability ([3]; plasma) | bioavailability ([3]; in vivo)
CC1=NC(=Cc2[nH]c(-c3ccc[nH]3)cc2OCc2ccccc2)C=C1.Cl [PNU 168727, 4-benzyloxy-5-[(5-methyl-2H-pyrrol-2-ylidene)methyl]-2,2′-bi-1H-pyrrole, hydrochloride] | 1.7 mg/kg | 5.3 mg/kg | 5% | 58245 cpm | 11% | 54594 cpm | 87% | 8100 cpm | 100% | 52 cpm | 35% | –
CCCCCCCCCCCC1=NC(=Cc2[nH]c(-c3ccc[nH]3)cc2OCc2ccccc2)C=C1.Cl [PNU 156804, 4-benzyloxy-5-[(5-undecyl-2H-pyrrol-2-ylidene)methyl]-2,2′-bi-1H-pyrrole, hydrochloride, reference compound] | 0.44 mg/kg | 18.7 mg/kg | – | – | – | – | – | – | – | – | – | 7%
CCCCCC1=NC(=Cc2[nH]c(-c3ccc[nH]3)cc2OCc2ccccc2)C=C1.Cl [PNU 169417, 4-benzyloxy-5-[(5-pentyl-2H-pyrrol-2-ylidene)methyl]-2,2′-bi-1H-pyrrole, hydrochloride] | 1.1 mg/kg | 4.4 mg/kg | – | – | – | – | – | – | – | – | 18% | –
